Test results reported in PubChem BioAssay AID328 (DTP/NCI, 2004).
Inconclusive results and toxic doses are left out.

Test system: BDF1 mice, P388 leukemia ip, median survival T/C
Assay: NCI In Vivo Anticancer Drug Screen. Data for tumor model P388 Leukemia (intraperitoneal) in B6D2F1 (BDF1) mice
Conditions: endpoint: median survival time, higher = longer survival
Method in brief: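 Read-out is survival of treated animals expressed relative to the vehicle group, as a T/C ratio.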

[1] = dose: 50.0 mg/kg/injection, schedule: Q04DX003 (ip), vehicle: saline with Tween-80
[2] = dose: 100.0 mg/kg/injection, schedule: Q04DX003 (ip), vehicle: saline with Tween-80
[3] = dose: 200.0 mg/kg/injection, schedule: Q04DX003 (ip), vehicle: saline with Tween-80
[4] = dose: 400.0 mg/kg/injection, schedule: Q04DX003 (ip), vehicle: saline with Tween-80

For `CCCC1CC[N-]CC1.CCCC1CC[N-]CC1.[Cl][Cu][Cl]`, the T/C (dose: 2.0 mg/kg/injection, schedule: Q01DX009 (ip), vehicle: saline) was 89 % of control, the T/C (dose: 4.0 mg/kg/injection, schedule: Q01DX009 (ip), vehicle: saline) was 100 % of control and the T/C (dose: 8.0 mg/kg/injection, schedule: Q01DX009 (ip), vehicle: saline) was 100 % of control.

`Nc1ncc(C(=O)O)c(N)n1` was tested, and the T/C (dose: 0.75 mg/kg/injection, schedule: Q01DX009 (ip), vehicle: saline with Tween-80) was 87 % of control, the T/C (dose: 1.5 mg/kg/injection, schedule: Q01DX009 (ip), vehicle: saline with Tween-80) was 104 % of control and the T/C (dose: 3.0 mg/kg/injection, schedule: Q01DX009 (ip), vehicle: saline with Tween-80) was 91 % of control. The T/C (dose: 6.25 mg/kg/injection, schedule: Q01DX009 (ip), vehicle: saline with Tween-80) was 88 % of control, the T/C (dose: 12.5 mg/kg/injection, schedule: Q04DX003 (ip), vehicle: saline with Tween-80) was 100 % of control and the T/C (dose: 25.0 mg/kg/injection, schedule: Q01DX009 (ip), vehicle: saline with Tween-80) was 111 % of control. The T/C (dose: 25.0 mg/kg/injection, schedule: Q04DX003 (ip), vehicle: saline with Tween-80) was 100 % of control and the T/C [1] was 100 % of control.

In the case of `CCc1ccc(C(C)(C)C)cc1`, the T/C [1] is reported as 109 % of control, the T/C [2] is reported as 104 % of control and the T/C (dose: 132.0 mg/kg/injection, schedule: Q01DX009 (ip), vehicle: saline with Tween-80) is reported as 118 % of control. The T/C [3] was 100 % of control.

For `CCOC(=O)/C(C#N)=C/N=c1ccccn1C`, the T/C (dose: 6.25 mg/kg/injection, schedule: Q04DX002 (ip), vehicle: saline with Tween-80) was 101 % of control, the T/C (dose: 12.5 mg/kg/injection, schedule: Q04DX002 (ip), vehicle: saline with Tween-80) was 101 % of control and the T/C (dose: 25.0 mg/kg/injection, schedule: Q04DX002 (ip), vehicle: saline with Tween-80) was 101 % of control.

For `COC(OC)c1ccccc1`, the T/C (dose: 50.0 mg/kg/injection, schedule: Q01DX009 (ip), vehicle: saline with Tween-80) was 99 % of control, the T/C (dose: 100.0 mg/kg/injection, schedule: Q01DX009 (ip), vehicle: saline with Tween-80) was 115 % of control and the T/C (dose: 200.0 mg/kg/injection, schedule: Q01DX009 (ip), vehicle: saline with Tween-80) was 108 % of control.

For `CP1(=O)CC(=O)CCC(=O)C1`, the T/C (dose: 50.0 mg/kg/injection, schedule: Q04DX002 (ip), vehicle: saline) was 104 % of control, the T/C (dose: 100.0 mg/kg/injection, schedule: Q04DX002 (ip), vehicle: saline) was 105 % of control and the T/C (dose: 200.0 mg/kg/injection, schedule: Q04DX002 (ip), vehicle: saline) was 106 % of control.

In the case of `Cn1c2ccccc2c2c3c(ccc21)C(=O)C=CC3=O`, the T/C [2] is reported as 113 % of control, the T/C [3] is reported as 102 % of control and the T/C [4] is reported as 121 % of control.

With `COc1ccc2nc(C)c(COC(C)=O)c(Cl)c2c1` the T/C (dose: 50.0 mg/kg/injection, schedule: Q01DX009 (ip), vehicle: saline) was 104 % of control, the T/C (dose: 100.0 mg/kg/injection, schedule: Q04DX003 (ip), vehicle: saline) was 104 % of control and the T/C (dose: 200.0 mg/kg/injection, schedule: Q01DX009 (ip), vehicle: saline) was 104 % of control. The T/C (dose: 200.0 mg/kg/injection, schedule: Q04DX003 (ip), vehicle: saline) was 105 % of control, the T/C (dose: 400.0 mg/kg/injection, schedule: Q01DX009 (ip), vehicle: saline) was 101 % of control and the T/C (dose: 400.0 mg/kg/injection, schedule: Q04DX003 (ip), vehicle: saline) was 90 % of control.

In the case of `CC1CC=C(C2CC(C)CC(N(C)C)C2=N)CC1` (stereo unspecified), the T/C (dose: 12.5 mg/kg/injection, schedule: Q01DX009 (sc), vehicle: olive oil, sesame oil, peanut oil) is reported as 104 % of control, the T/C (dose: 25.0 mg/kg/injection, schedule: Q01DX009 (sc), vehicle: olive oil, sesame oil, peanut oil) is reported as 109 % of control and the T/C (dose: 50.0 mg/kg/injection, schedule: Q01DX009 (sc), vehicle: olive oil, sesame oil, peanut oil) is reported as 113 % of control. The T/C (dose: 100.0 mg/kg/injection, schedule: Q04DX003 (sc), vehicle: olive oil, sesame oil, peanut oil) was 91 % of control, the T/C (dose: 200.0 mg/kg/injection, schedule: Q04DX003 (sc), vehicle: olive oil, sesame oil, peanut oil) was 104 % of control and the T/C (dose: 400.0 mg/kg/injection, schedule: Q04DX003 (sc), vehicle: olive oil, sesame oil, peanut oil) was 116 % of control.

In the case of `Cc1ccc(C(=O)/C=C/N2CCN(c3ccccc3)CC2)c(C)c1`, the T/C [2] is reported as 100 % of control, the T/C [3] is reported as 100 % of control and the T/C [4] is reported as 90 % of control.

With `C=CCN1/C(=C/C=C\c2sc3ccccc3[n+]2CC=C)Sc2ccccc21` the T/C (dose: 0.12 mg/kg/injection, schedule: Q01DX009 (ip), vehicle: saline) was 100 % of control, the T/C (dose: 0.25 mg/kg/injection, schedule: Q04DX003 (ip), vehicle: Klucel (hydroxypropylcellulose) (HPC)) was 175 % of control and the T/C (dose: 0.5 mg/kg/injection, schedule: Q04DX003 (ip), vehicle: Klucel (hydroxypropylcellulose) (HPC)) was 115 % of control. The T/C (dose: 1.0 mg/kg/injection, schedule: Q01DX009 (ip), vehicle: saline) was 154 % of control, the T/C (dose: 1.0 mg/kg/injection, schedule: Q01DX010 (ip), vehicle: saline) was 123 % of control and the T/C (dose: 1.0 mg/kg/injection, schedule: Q04DX003 (ip), vehicle: Klucel (hydroxypropylcellulose) (HPC)) was 110 % of control. The T/C (dose: 63.0 micrograms/kg/injection, schedule: Q01DX010 (ip), vehicle: saline) was 90 % of control, the T/C (dose: 125.0 micrograms/kg/injection, schedule: Q01DX010 (ip), vehicle: saline) was 90 % of control and the T/C (dose: 250.0 micrograms/kg/injection, schedule: Q01DX010 (ip), vehicle: saline) was 90 % of control.
